The record followed here is ChEMBL document CHEMBL1124047, “Acetohydroxamic acids as potent, selective, orally active 5-lipoxygenase inhibitors” (J Med Chem, 1988).

The target of assay [1] is T1, Polyunsaturated fatty acid 5-lipoxygenase (Homo sapiens, UniProt P09917).
T1 sequence (P09917 whole entry): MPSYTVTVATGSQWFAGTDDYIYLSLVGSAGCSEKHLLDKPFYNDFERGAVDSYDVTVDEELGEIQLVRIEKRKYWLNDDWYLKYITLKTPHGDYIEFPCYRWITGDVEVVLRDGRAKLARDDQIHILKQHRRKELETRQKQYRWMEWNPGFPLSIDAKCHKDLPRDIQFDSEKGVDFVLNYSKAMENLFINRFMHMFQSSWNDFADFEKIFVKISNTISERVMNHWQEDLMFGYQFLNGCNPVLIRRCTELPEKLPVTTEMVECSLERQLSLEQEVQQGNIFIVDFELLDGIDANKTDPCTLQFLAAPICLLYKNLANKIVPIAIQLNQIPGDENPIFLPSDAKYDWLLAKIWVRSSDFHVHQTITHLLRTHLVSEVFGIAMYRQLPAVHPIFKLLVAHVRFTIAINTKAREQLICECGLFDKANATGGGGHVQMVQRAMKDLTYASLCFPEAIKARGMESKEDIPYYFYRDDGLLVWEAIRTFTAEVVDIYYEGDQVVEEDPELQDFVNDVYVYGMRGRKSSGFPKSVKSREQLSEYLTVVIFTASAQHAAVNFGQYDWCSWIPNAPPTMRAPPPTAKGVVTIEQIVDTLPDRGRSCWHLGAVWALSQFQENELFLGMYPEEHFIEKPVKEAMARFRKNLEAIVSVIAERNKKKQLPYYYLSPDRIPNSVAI
Put plainly: In vitro inhibition of 5-lipoxygenase from human polymorphs.

Assay [2] addresses Cyclooxygenase (Homo sapiens, UniProt P35354+P23219). Nature of the assay: In vitro inhibition of Prostaglandin G/H synthase from human polymorphs. The class given is protein assay.

Each structure is given as a SMILES string.

As to `CN(O)C(=O)/C=C/c1cccc(Oc2ccccc2)c1`, the IC50 worked out at 50 nM in assay [1] and 5000 nM in assay [2]. As for `CC(=O)N(O)C/C=C/c1cccc(Oc2ccccc2)c1`, in assay [2], the IC50 was determined as 3200 nM. `CC(=O)N(O)Cc1ccc(OCc2ccccc2)cc1`: the values for the IC50 in assay [1] and in assay [2] were 770 nM and 22000 nM, respectively.
